Data on three compounds can be found in patent US12290527B2, “Compositions and methods for reducing major thrombotic events in cancer patients” (Beth Israel Deaconess Medical Center, Inc., priority 2018, dated 2025).

The subject of series [1] is soluble P-selectin. The following applies: standard anticoagulants compared in words; cited from earlier work.
Series [2] has as its system soluble P-selectin. As to the kind of experiment: Soluble P-selectin (CD62) in plasma, commercial ELISA. It counts as in vivo, human. The following applies: for median change in soluble P-selectin: end-of-treatment vs baseline plasma. The source says:
P-selectin is a transmembrane adhesion receptor that is externalized from α-granules in platelets and Weibel-Palade bodies in endothelial cells following cell activation. P-selectin can be shed from the cell surface following externalization and P-selectin shedding is increased in cardiovascular disease, sepsis, and cancer. […] As PDI inhibition alters platelet and endothelial reactivity, baseline versus end-of-treatment plasma levels of soluble P-selectin following treatment with isoquercetin was compared. As shown in FIG. 6A-FIG. 6B, there was no change in soluble P-selectin in Cohort A (FIG. 6A) (median change −0.3%, P=0.26).
(§1) Measurement of soluble P-selectin (CD62) was performed centrally using a commercial ELISA (Invitrogen/ThermoFisher Scientific #BMS219-4) and prothrombin time and partial thromboplastin time according to standard manufacturer protocol on a Sago Start 4 instrument (STA-Neoplastine CI Plus 5 #00606, STA-PTT Automate 5 #00595).
(In general: In an ELISA, binding on a coated surface is turned into a signal by an enzyme label.)

Series [3] relates to D-dimer. As to the kind of experiment: Plasma D-dimer (Asserachrom D-Di ELISA), phase II trial in cancer patients. It counts as in vivo, human. As to the method: A multi-center, multi-dose phase II trial was conducted to evaluate, among other markers and readouts, the efficacy of targeting protein disulfide isomerase (PDI) along with soluble P-selectin with isoquercetin to reduce the hypercoagulability in cancer patients at high risk for venous thromboembolism (VTE). Patients received isoquercetin at 500 mg (cohort A) or 1000 mg (cohort B) daily for 56 days with laboratory assays at the beginning and at completion of study (along with duplex ultrasound). The primary endpoint was a reduction in D-dimer and the primary clinical endpoint included pulmonary embolism or proximal deep vein thrombosis, and also included measuring the level of soluble P-selectin. (See, Zwicker et al., JCI Insight.2019; 4(4):e125851.)
The primary endpoint of the study was comparison of plasma D-dimer at baseline and end-of-study. D-dimer is liberated from cross-linked fibrin following […] degradation. D-dimer is the most validated and commonly utilized laboratory assay in the clinic to detect deep vein thrombosis. In patients with advanced cancer, plasma D-dimer levels are commonly elevated and correlate with an increased risk for developing of VTE.
Participants were sequentially enrolled into two dosing cohorts: Cohort A (isoquercetin 500 mg) and Cohort B (isoquercetin 1000 mg). Isoquercetin was supplied in capsules containing 250 mg of isoquercetin each with 10 mg added as overage to guarantee a minimum of 250 mg of isoquercetin per capsule with added Vitamin C and Vitamin B3 by Quercegen Pharmaceuticals LLC (Boston, MA). The drug product capsules were manufactured by Pharmavize NV, Kleinmoer 4, 9030 Mariakerke, Belgium.
The ratio of components in the capsules was: 1:0.25:0.02 of isoquercetin, vitamin C, and vitamin B3, respectively. It is noted that folic acid can optionally be present in the isoquercetin composition. Isoquercetin was taken orally daily for a total of 56 days. The first 5 patients of each cohort were monitored for evidence of toxicity prior (≥1 grade 3 or higher toxicity possibly related to isoquercetin) prior to the subsequent enrollment of 25 patients into each cohort. Patients were monitored for development of a venous thromboembolic event throughout the study including a bilateral lower extremity duplex ultrasound at end of study visit (day 56±5). […]
Blood was drawn by peripheral venipuncture into 3.2% citrate. […] D-dimer was measured centrally using Asserrachrom D-Di ELISA, considered the reference standard assay for D-dimer (Stago, France) (Meyer G. et al., Blood Coagulation & Fibrinolysis. 1998; 9(7):603-8.).

For series [4] the following is noted: isoquercetin at 500 mg; prior pharmacokinetic studies; cited from earlier work.
The test system of series [5] is prothrombin time and partial thromboplastin time. As to the kind of experiment: Standard coagulation assays (prothrombin time, partial thromboplastin time). Format: in vivo, human. As to the method:
as §1

Series [6] deals with platelet-dependent thrombin generation. As to the kind of experiment: Platelet-dependent thrombin generation assay on patient plasma. It counts as in vivo, human. The following applies: follow-up vs baseline. The source says:
The platelet-dependent thrombin generation assay measures thrombin generation following platelet activation and requires PDI. […] Correlation between PDI inhibitory activity in plasma and platelet-dependent thrombin generation confirmed the PDI-dependency of thrombin generation (Spearman coefficient 0.29, P=0.004). There was significant correlation between increased plasma PDI inhibitory activity and decreased thrombin generation (Pearson correlation coefficient 0.45, P=0.002)
Platelet-dependent thrombin generation was performed according to previously published methodology (Stopa J D et al., JCI insight. 2017;2(1):e89373; Jurk K et al. J Thromb Haemost. 2011; 9(11):2278-90). Briefly, platelet-free plasma was mixed with donor platelet-rich plasma diluted to a platelet concentration of 250,000 platelets per microliter in the presence of 5 mM GPRP and 6 mM CaCl2), and then stimulated with 0.1 U/ml of thrombin. Samples were incubated for 90 min at room temperature with rotation, and thrombin levels were measured using cleavage of a fluorescent thrombin-specific substrate (Haemtech SN-20 Boc-L-FPR-ANSNH-C2H5) by excitation at 352 nm and emission as a function of time at 470 nm. Rates of substrate cleavage were used to calculate the concentration of thrombin in each sample.

The subject of series [7] is patients with advanced cancer. As to the kind of experiment: Venous thromboembolism monitoring (clinical and end-of-study lower extremity ultrasound). Format: in vivo, human. The source says: Patients were monitored for the development of venous thromboembolism (VTE) throughout the two months of the study including an end-of-study bilateral lower extremity ultrasound to evaluate for asymptomatic lower extremity proximal DVT. Shown in FIG. 3A-FIG. 3D is the proportion of patients remaining free of VTE through the course of the study. […] There were three secondary VTE endpoints recorded in cohort A (FIG. 3C, two incidental catheter-associated DVT diagnosed with re-staging imaging and one lower extremity superficial venous clot). In cohort B (FIG. 3D), there were two secondary endpoint thrombotic events recorded (superficial venous clot of the lower extremity and incidental thrombosis observed in a lingular pulmonary vein on re-staging imaging).
(§2) The ratio of components in the capsules was: 1:0.25:0.02 of isoquercetin, vitamin C, and vitamin B3, respectively. It is noted that folic acid can optionally be present in the isoquercetin composition. Isoquercetin was taken orally daily for a total of 56 days. The first 5 patients of each cohort were monitored for evidence of toxicity prior (≥1 grade 3 or higher toxicity possibly related to isoquercetin) prior to the subsequent enrollment of 25 patients into each cohort. Patients were monitored for development of a venous thromboembolic event throughout the study including a bilateral lower extremity duplex ultrasound at end of study visit (day 56±5). Participants were taken off study if they developed an intercurrent illness that prevented further administration; unacceptable adverse events; poor compliance; participant preference; VTE or condition requiring therapeutic anticoagulation; requirement for prophylactic anticoagulation for >7 consecutive days; or grade ≥3 hemorrhage or otherwise met the ISTH criteria for major hemorrhage. Doses were held for grade 2 hemorrhage or platelet count <50×10^9/L.
The primary VTE endpoint included any symptomatic proximal or distal deep vein thrombosis, symptomatic PE or fatal PE diagnosed by autopsy, asymptomatic proximal DVT diagnosed by protocol-specified ultrasound at end of study. All suspected VTE were assessed by an independent adjudication committee that included central radiologic review of images. Criteria for new VTE included any of the following: A) A new noncompressibility of lower extremity deep venous segments by compression ultrasound (distal lower extremity thrombus qualified for primary VTE endpoint only if symptomatic). […] All other venous or arterial events were recorded and analyzed as secondary endpoints. […]

Series [8] has as its system patients with advanced cancer. As to the kind of experiment: Safety: hemorrhage (ISTH) and toxicities (CTCAE) in phase II trial. Format: in vivo, human.
Text: as §2
The primary VTE endpoint included any symptomatic proximal or distal deep vein thrombosis, symptomatic PE or fatal PE diagnosed by autopsy, asymptomatic proximal DVT diagnosed by protocol-specified ultrasound at end of study. All suspected VTE were assessed by an independent adjudication committee that included central radiologic review of images. Criteria for new VTE included any of the following: A) A new noncompressibility of lower extremity deep venous segments by compression ultrasound (distal lower extremity thrombus qualified for primary VTE endpoint only if symptomatic). B) Intraluminal defects in two or more views on pulmonary angiography, sudden contrast cut-off of one or more vessels greater than 2.5 mm in diameter on a pulmonary angiogram; a high probability VQ lung scan showing one or more segmental perfusion defects with corresponding normal ventilation (mismatch defect); or abnormal spiral CT showing thrombus in pulmonary vessels (subsegmental or larger). All other venous or arterial events were recorded and analyzed as secondary endpoints. Criteria for major hemorrhage was according to ISTH definition (Schulman S, and Kearon C. J Thromb Haemost. 2005; 3(4):692-4). All toxicities were graded according NCI Common Terminology Criteria for Adverse Events (CTCAE). Study oversight was performed by an independent Data Safety Monitoring Committee at Dana Farber Harvard Cancer Center.

Where [9] appears, read: Cohort A, isoquercetin 500 mg daily.
Where [10] appears, read: Cohort B, isoquercetin 1000 mg daily.

Entries after “also recorded” stand apart in the source; their conditions may differ.

Regarding `CC(=O)CC(c1ccccc1)c1c(O)c2ccccc2oc1=O` (stereo not drawn) [warfarin], the “lowering of soluble P-selectin levels (activity shared with isoquercetin or not)” value in series [1] is “not shared”.
As for `O=C(NC[C@H]1CN(c2ccc(N3CCOCC3=O)cc2)C(=O)O1)c1ccc(Cl)s1` [rivaroxaban], in series [1], the “lowering of soluble P-selectin levels (activity shared with isoquercetin or not)” value is reported as “not shared”.
`O=c1c(O[C@@H]2O[C@H](CO)[C@@H](O)[C@H](O)[C@H]2O)c(-c2ccc(O)c(O)c2)oc2cc(O)cc(O)c12` [isoquercetin, 2-(3,4-Dihydroxyphenyl)-5,7-dihydroxy-3-[(2S,3R,4S,5S,6R)-3,4,5-trihydroxy-6-(hydroxymethyl)oxan-2-yl]oxychromen-4-one]: the “median change in soluble P-selectin” value in series [2] (setting [9]) is given as −0.3%; in series [2] (setting [10]) it was −57.9%. In addition, the “patients with decreased soluble P-selectin (in words)” value in series [2] (setting [10]) is “decreased in all patients except one”. In series [3] (Cohort B, 1000 mg daily, paired samples), the “individuals with reduced D-dimer” value is 18 of 22. Moreover, the “median change in D-dimer” value in series [3] (Cohort B, isoquercetin 1000 mg daily oral, 56 days, baseline vs end-of-study, cancer patients) is listed as −21.9%. Also, in series [3] (isoquercetin 1000 mg daily, 56 days, printed as decrease without sign), the “median decrease of D-dimer plasma concentrations” value came out at 21.9%. In series [3] (lower dose, isoquercetin 500 mg), the “reduction of D-dimer levels (in words)” value is recorded as “did not reduce D-dimer levels”. In addition, the “plasma concentrations relative to IC50 of PDI activity in vitro” value in series [4] was “fall below the inhibitory concentration (IC50) of PDI activity in vitro”. For the same compound, the “mean PT at 2-months” value in series [5] (Cohort A, 500 mg daily, baseline 14.0 seconds) amounted to 14.3 s; in series [5] (Cohort B, 1000 mg daily, baseline 15.1 seconds), 15.2 s. In series [5] (Cohort A, 500 mg daily, baseline 49.6 seconds), the “mean PTT at study completion” value was 45.6 s. Moreover, the “mean PTT at 2-months” value in series [5] (Cohort B, 1000 mg daily, baseline 54.2 seconds) worked out at 51.9 s. Moreover, in series [5] (following administration of isoquercetin, both cohorts), the “effects in standard coagulation assays (in words)” value is given as “no effects detected”. For the same compound, the “median change in platelet-dependent thrombin generation” value is −31.1% in series [6] (setting [9]) and −57.2% in series [6] (setting [10]). Also, the “secondary VTE endpoints recorded” value in series [7] (Cohort A, 500 mg daily, two catheter-associated DVT, one superficial venous clot) was “three”. Further, the “secondary endpoint thrombotic events recorded” value in series [7] (Cohort B, 1000 mg daily, superficial venous clot, lingular pulmonary vein thrombosis) was “two”. The “primary VTE endpoint events” value in series [7] (both cohorts (500 mg and 1000 mg daily), 2-month study) is recorded as “no VTE that met criteria for the primary VTE endpoint; also recorded: no primary VTE endpoints observed”. In addition, in series [7] (treated patients, cancer population at higher risk for thrombosis and hemorrhage), the “proximal deep vein thrombosis, pulmonary emboli, or major hemorrhage observed” value is recorded as “none of the following were observed”. Moreover, the “patients developing grade 1 epistaxis” value in series [8] (Cohort A, 500 mg daily) is “One”. In addition, the “patients developing non-severe gastrointestinal bleeding” value in series [8] (Cohort B, 1000 mg daily, grade 1 hemorrhoid and grade 2 rectal bleeding) was “two”. For the same compound, the “severe adverse events (grade 3 or 4) attributed to isoquercetin” value in series [8] (both cohorts) is “no severe adverse events (grade 3 or 4); also recorded: No grade 3 or 4 toxicities were reported”. For the same compound, in series [8] (both cohorts, modified intention-to treat analyses), the major hemorrhages result was “no major hemorrhages observed”. Moreover, the “most commonly reported toxicities on study” value in series [8] (common toxicities of the concurrent chemotherapeutics) was “nausea and diarrhea”. In addition, the “deaths during the 2 months of follow-up” value in series [8] (following initiation of isoquercetin) is “no deaths reported”.
